Legend:
Type in all cases: in vivo
Barnyardgrass [1] = experiment: pre-emergence herbicide test; details: Echinochloa crus-galli, pre-emergence, 0.25 lb/A; read-out: % plant inhibition
Outline: (§1)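 Seeds were sown on compacted topsoil in pans and covered with a topsoil layer carrying a known amount of active ingredient in acetone or water, applied before or after covering. Pans were bottom-watered on a greenhouse bench, and % inhibition was scored about 14 days after seeding and treatment.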

Morning Glory [2] = experiment: pre-emergence herbicide test; details: Ipomoea, pre-emergence, 0.25 lb/A; read-out: % plant inhibition
Outline: as §1

Wild Oats [3] = experiment: pre-emergence herbicide test; details: Avena fatua, pre-emergence, 0.25 lb/A; read-out: % plant inhibition
Outline: as §1

Rape [4] = experiment: pre-emergence herbicide test; details: pre-emergence, 0.25 lb/A; read-out: % plant inhibition
Outline: as §1

Wheat [5] = experiment: pre-emergence herbicide test; details: Triticum aestivum, pre-emergence, 0.25 lb/A; read-out: % plant inhibition
Outline: as §1

Giant Foxtail [6] = experiment: pre-emergence herbicide test; details: Setaria faberi, pre-emergence, 0.25 lb/A; read-out: % plant inhibition
Outline: as §1

Cocklebur [7] = experiment: pre-emergence herbicide test; details: Xanthium strumarium, pre-emergence, 0.25 lb/A; read-out: % plant inhibition
Outline: as §1

Corn [8] = experiment: pre-emergence herbicide test; details: Zea mays, pre-emergence, 0.25 lb/A; read-out: % plant inhibition
Outline: as §1

Velvetleaf [9] = experiment: pre-emergence herbicide test; details: Abutilon theophrasti, pre-emergence, 0.25 lb/A; read-out: % plant inhibition
Outline: as §1

Downy Brome [10] = experiment: pre-emergence herbicide test; details: Bromus tectorum, pre-emergence, 0.25 lb/A; read-out: % plant inhibition
Outline: as §1

Bedstraw Catchweed [11] = experiment: pre-emergence herbicide test; details: Galium aparine, pre-emergence, 0.25 lb/A; read-out: % plant inhibition
Outline: as §1

Common Chickweed [12] = experiment: pre-emergence herbicide test; details: pre-emergence, 0.25 lb/A; read-out: % plant inhibition
Outline: as §1

Soybean [13] = experiment: pre-emergence herbicide test; details: Glycine max, pre-emergence, 0.25 lb/A; read-out: % plant inhibition
Outline: as §1

Seedling Johnsongrass [14] = experiment: pre-emergence herbicide test; details: Sorghum halepense, pre-emergence, 0.25 lb/A; read-out: % plant inhibition
Outline: as §1

Green Foxtail [15] = experiment: pre-emergence herbicide test; details: Setaria viridis, pre-emergence; 0.25 lb/A; read-out: % plant inhibition
Outline: as §1

Blackgrass [16] = experiment: pre-emergence herbicide test; details: Alopecurus myosuroides, pre-emergence, 0.25 lb/A; read-out: % plant inhibition
Outline: as §1

Birdseye Speedwell [17] = experiment: pre-emergence herbicide test; details: pre-emergence, 0.25 lb/A; read-out: % plant inhibition
Outline: as §1

Barnyardgrass [18] = experiment: post-emergence herbicide test; details: Echinochloa crus-galli, post-emergence, 0.25 lb/A; read-out: % plant inhibition
Outline: (§2)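 Plants were raised from seed in topsoil pans in the greenhouse and treated post-emergence at two to three weeks of age. Candidate chemical was applied in spray solution or suspension containing about 0.4% emulsifier at 1870 L/Ha. Activity recorded as percent inhibition.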

Morning Glory [19] = experiment: post-emergence herbicide test; details: Ipomoea, post-emergence, 0.25 lb/A; read-out: % plant inhibition
Outline: as §2

Wild Oats [20] = experiment: post-emergence herbicide test; details: Avena fatua, post-emergence, 0.25 lb/A; read-out: % plant inhibition
Outline: as §2

Rape [21] = experiment: post-emergence herbicide test; details: post-emergence, 0.25 lb/A; read-out: % plant inhibition
Outline: as §2

Wheat [22] = experiment: post-emergence herbicide test; details: Triticum aestivum, post-emergence, 0.25 lb/A; read-out: % plant inhibition
Outline: as §2

Giant Foxtail [23] = experiment: post-emergence herbicide test; details: Setaria faberi, post-emergence, 0.25 lb/A; read-out: % plant inhibition
Outline: as §2

Cocklebur [24] = experiment: post-emergence herbicide test; details: Xanthium strumarium, post-emergence, 0.25 lb/A; read-out: % plant inhibition
Outline: as §2

Corn [25] = experiment: post-emergence herbicide test; details: Zea mays, post-emergence, 0.25 lb/A; read-out: % plant inhibition
Outline: as §2

Velvetleaf [26] = experiment: post-emergence herbicide test; details: Abutilon theophrasti, post-emergence, 0.25 lb/A; read-out: % plant inhibition
Outline: as §2

Downy Brome [27] = experiment: post-emergence herbicide test; details: Bromus tectorum, post-emergence, 0.25 lb/A; read-out: % plant inhibition
Outline: as §2

Bedstraw Catchweed [28] = experiment: post-emergence herbicide test; details: Galium aparine, post-emergence, 0.25 lb/A; read-out: % plant inhibition
Outline: as §2

Common Chickweed [29] = experiment: post-emergence herbicide test; details: post-emergence, 0.25 lb/A; read-out: % plant inhibition
Outline: as §2

Soybean [30] = experiment: post-emergence herbicide test; details: Glycine max, post-emergence, 0.25 lb/A; read-out: % plant inhibition
Outline: as §2

Seedling Johnsongrass [31] = experiment: post-emergence herbicide test; details: Sorghum halepense, post-emergence, 0.25 lb/A; read-out: % plant inhibition
Outline: as §2

Green Foxtail [32] = experiment: post-emergence herbicide test; details: Setaria viridis, post-emergence, 0.25 lb/A; read-out: % plant inhibition
Outline: as §2

Blackgrass [33] = experiment: post-emergence herbicide test; details: Alopecurus myosuroides, post-emergence, 0.25 lb/A; read-out: % plant inhibition
Outline: as §2

Birdseye Speedwell [34] = experiment: post-emergence herbicide test; details: post-emergence, 0.25 lb/A; read-out: % plant inhibition
Outline: as §2

Structure (SMILES)	inhibition at 280.212 g/ha (Barnyardgrass [1])	inhibition at 280.212 g/ha (Morning Glory [2])	inhibition at 280.212 g/ha (Wild Oats [3])	inhibition at 280.212 g/ha (Rape [4])	inhibition at 280.212 g/ha (Wheat [5])	inhibition at 280.212 g/ha (Giant Foxtail [6])	inhibition at 280.212 g/ha (Cocklebur [7])	inhibition at 280.212 g/ha (Corn [8])	inhibition at 280.212 g/ha (Velvetleaf [9])	inhibition at 280.212 g/ha (Downy Brome [10])	inhibition at 280.212 g/ha (Bedstraw Catchweed [11])	inhibition at 280.212 g/ha (Common Chickweed [12])	inhibition at 280.212 g/ha (Soybean [13])	inhibition at 280.212 g/ha (Seedling Johnsongrass [14])	inhibition at 280.212 g/ha (Green Foxtail [15])	inhibition at 280.212 g/ha (Blackgrass [16])	inhibition at 280.212 g/ha (Birdseye Speedwell [17])	inhibition at 280.212 g/ha (Barnyardgrass [18])	inhibition at 280.212 g/ha (Morning Glory [19])	inhibition at 280.212 g/ha (Wild Oats [20])	further results
Cc1c(-c2cc(C(N)=O)c(Cl)cc2F)nn(C)c1C(F)(F)F [Compound 21]	90%	20%	60%	90%	5%	45%	20%	16%	25%	35%	90%	98%	15%	85%	100%	95%	100%	25%	90%	20%	inhibition at 280.212 g/ha (Rape [21]): 20%; inhibition at 280.212 g/ha (Wheat [22]): 5%; inhibition at 280.212 g/ha (Giant Foxtail [23]): 35%; inhibition at 280.212 g/ha (Cocklebur [24]): 65%; inhibition at 280.212 g/ha (Corn [25]): 10%; inhibition at 280.212 g/ha (Velvetleaf [26]): 90%; inhibition at 280.212 g/ha (Downy Brome [27]): 25%; inhibition at 280.212 g/ha (Bedstraw Catchweed [28]): 65%; inhibition at 280.212 g/ha (Common Chickweed [29]): 30%; inhibition at 280.212 g/ha (Soybean [30]): 35%; inhibition at 280.212 g/ha (Seedling Johnsongrass [31]): 35%; inhibition at 280.212 g/ha (Green Foxtail [32]): 25%; inhibition at 280.212 g/ha (Blackgrass [33]): 10%; inhibition at 280.212 g/ha (Birdseye Speedwell [34]): 50%
C=CCOC(=O)c1cc(-c2nn(C)c(C(F)(F)F)c2C)c(F)cc1Cl [Compound 54]	100%	40%	30%	0%	5%	99%	35%	10%	100%	75%	80%	90%	5%	99%	100%	35%	98%	95%	80%	80%	inhibition at 280.212 g/ha (Rape [21]): 75%; inhibition at 280.212 g/ha (Wheat [22]): 16%; inhibition at 280.212 g/ha (Giant Foxtail [23]): 90%; inhibition at 280.212 g/ha (Cocklebur [24]): 99%; inhibition at 280.212 g/ha (Corn [25]): 35%; inhibition at 280.212 g/ha (Velvetleaf [26]): 100%; inhibition at 280.212 g/ha (Downy Brome [27]): 70%; inhibition at 280.212 g/ha (Bedstraw Catchweed [28]): 98%; inhibition at 280.212 g/ha (Common Chickweed [29]): 90%; inhibition at 280.212 g/ha (Soybean [30]): 80%; inhibition at 280.212 g/ha (Seedling Johnsongrass [31]): 90%; inhibition at 280.212 g/ha (Green Foxtail [32]): 98%; inhibition at 280.212 g/ha (Blackgrass [33]): 30%; inhibition at 280.212 g/ha (Birdseye Speedwell [34]): 100%
Cc1c(-c2cc(C(=O)OCC3CNCCO3)c(Cl)cc2F)nn(C)c1C(F)(F)F (stereo not drawn) [Compound 47]	75%	70%	5%	5%	0%	75%	0%	0%	50%	20%	95%	70%	0%	50%	100%	25%	70%	5%	70%	30%	inhibition at 280.212 g/ha (Rape [21]): 65%; inhibition at 280.212 g/ha (Wheat [22]): 15%; inhibition at 280.212 g/ha (Giant Foxtail [23]): 5%; inhibition at 280.212 g/ha (Cocklebur [24]): 100%; inhibition at 280.212 g/ha (Corn [25]): 50%; inhibition at 280.212 g/ha (Velvetleaf [26]): 100%; inhibition at 280.212 g/ha (Downy Brome [27]): 20%; inhibition at 280.212 g/ha (Bedstraw Catchweed [28]): 90%; inhibition at 280.212 g/ha (Common Chickweed [29]): 95%; inhibition at 280.212 g/ha (Soybean [30]): 30%; inhibition at 280.212 g/ha (Seedling Johnsongrass [31]): 50%; inhibition at 280.212 g/ha (Green Foxtail [32]): 70%; inhibition at 280.212 g/ha (Blackgrass [33]): 20%; inhibition at 280.212 g/ha (Birdseye Speedwell [34]): 95%
